Test results from PubChem BioAssay (NCI).
“And” between values parts separate entries of the source, which are not always exact repeats. Identical values can stand only once.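 Assay format: 96-well plates, 48-hour exposure. The concentration for 50% growth inhibition is given as GI50. At the TGI there is no net growth.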

Tests used:
Test in all cases: NCI tumour cell line growth inhibition, 48 h
[1] = system: MOLT-4 leukemia
[2] = system: HS 578T breast
[3] = system: HL-60(TB) leukemia
[4] = system: OVCAR-5 ovarian
[5] = system: SNB-75 CNS
[6] = system: LOX IMVI melanoma
[7] = system: UO-31 renal
[8] = system: NCI-H460 lung
[9] = system: SF-539 CNS
[10] = system: MDA-MB-231 breast

Structure (SMILES) | TGI [1] [µM] | TGI [2] [µM] | TGI [3] | TGI [4] | TGI [5] | TGI [6] | TGI [7] | TGI [8] | TGI [9] | TGI [10] [µM] | GI50 [1] [µM] | GI50 [3] [µM] | GI50 [4] [µM] | GI50 [5] [µM] | GI50 [6] [µM] | GI50 [7] [µM] | GI50 [8] [µM] | GI50 [9] [µM]
CC1=C(C)C(=O)C(C2=CC(=O)C=CC2=O)=C(C2=CC(=O)C=CC2=O)C1=O | 44.8 | > 100 | > 100 µM | > 100 µM | > 100 µM | > 96.1 µM | > 100 µM | > 100 µM | 51.7 µM | 42.5 | – | – | – | – | – | – | – | –
OC1C[C@H](c2ccccc2)C2(C(O)c3ccccc3C2O)[C@@H](c2ccccc2)C1 (some centres not stated) | > 100 | > 100 | > 100 µM | > 100 µM | > 100 µM | > 100 µM | > 100 µM | > 100 µM | > 100 µM | > 100 | – | – | – | – | – | – | – | –
[N-]=[N+]=Nc1c([N+](=O)[O-])c(=O)n2c3c(cccc13)CCC2 | 5.58 | > 77.3 | 4.56 µM | 30.2 µM | 38.1 µM | 28.9 µM | 28.4 µM | 35.1 µM | 52.2 µM | 25.9 | – | – | – | – | – | – | – | –
S=c1[nH]c2ccc(I)cc2c(=S)n1Cc1ccccc1 | 13.4 | > 100 | 5.96 µM | 43.9 µM | 13.7 µM | 16 µM | 24.8 µM | 16.3 µM | 37.2 µM | 20.4 | – | – | – | – | – | – | – | –
CCN1CCC(O)(/C=C/c2ccc(C(C)C)cc2)C(C(=O)/C=C/c2ccc(C(C)C)cc2)C1 (configuration not stated) | 5.18 | 5.68 | > 26.8 µM | 12 µM | 11.7 µM | 3.38 µM | 7.88 µM | 3.35 µM | 4.58 µM | 3.82 | – | – | – | – | – | – | – | –
CCCCCCCCCCCCCC(=O)N(CCCCCCCCC)CC(O)C(O)C(OC1OC(CO)C(O)C(O)C1O)C(O)CO (configuration not stated) | 44.9 | 51.9 | 48.7 µM | > 100 µM | 37.3 µM | 39.6 µM | 34.5 µM | 39.1 µM | 51.3 µM | 37.2 | – | – | – | – | – | – | – | –
Cc1cn(S(=O)(=O)c2ccccc2)c2c(OCc3ccccc3)cc(NS(C)(=O)=O)cc12 | > 24.8 | > 100 | > 20.6 µM | > 100 µM | > 100 µM | > 100 µM | > 100 µM | > 100 µM | > 100 µM | 32.8 | – | – | – | – | – | – | – | –
NC(N)=NCCCC(NC(=O)OCCCCn1ccc(N)nc1=O)C(=O)O (configuration not stated) | > 100 | > 100 | > 100 µM | > 100 µM | > 100 µM | > 100 µM | > 100 µM | > 100 µM | > 100 µM | > 100 | – | – | – | – | – | – | – | –
O=C(O)CCC(NC(=O)c1ccc(Nc2nc3cc(C(F)(F)F)ccc3nc2C(=O)O)cc1)C(=O)O (configuration not stated) | > 100 | > 100 | > 100 µM | > 100 µM | > 100 µM | > 100 µM | > 100 µM | > 100 µM | > 100 µM | > 100 | – | – | – | – | – | – | – | –
CCC(NC1=NCCO1)c1cccs1 (configuration not stated) | > 100 | 26.4 | 82.7 µM | 30.7 µM | 16.9 µM | 66.7 µM | 32.7 µM | 46 µM | 29.8 µM | 44.6 | – | – | – | – | – | – | – | –
COc1cc(Br)c(CC2C3=C(CCN2C(=O)C2CCC2)CC(=O)CC3)cc1O (configuration not stated) | > 100 | 85.5 | 36.9 µM | > 100 µM | 71.1 µM | > 100 µM | > 100 µM | > 100 µM | > 100 µM | > 100 | – | – | – | – | – | – | – | –
CN(C)/N=N/c1nc[nH]c1C(N)=O | – | > 1000 | 85 µM and > 745 µM | > 1000 µM | 82.2 µM and > 763 µM | > 1000 µM | 96.9 µM and > 793 µM | > 1000 µM | 99.3 µM and > 875 µM | > 1000 | 17.8 | 4.16 | > 788 | 126 | 29.8 | 24.5 | 59.4 | 47.5
C=CCC(C(=O)Nc1cccc2[nH]cnc12)C(=O)OCC (configuration not stated) | > 100 | > 100 | > 100 µM | > 100 µM | > 100 µM | > 100 µM | > 100 µM | > 100 µM | > 100 µM | > 100 | – | – | – | – | – | – | – | –
C=C1CN(C2=NCCO2)C1 | > 100 | > 100 | > 100 µM | > 100 µM | > 100 µM | > 100 µM | > 100 µM | > 100 µM | > 100 µM | > 100 | – | – | – | – | – | – | – | –
CCOC(=O)/C=C(\C(=O)OCC)n1ccc(=O)[nH]c1=O | 12.4 | 99.8 | 6.2 µM | 34.8 µM | 35.3 µM | 28.7 µM | 31.1 µM | 52.2 µM | 75.1 µM | 32.6 | – | – | – | – | – | – | – | –
COc1ccc(N2NC(c3ccccc3)(c3ccccc3)C(C)C2=O)cc1 (configuration not stated) | > 100 | > 100 | > 100 µM | > 100 µM | > 100 µM | > 100 µM | > 100 µM | > 100 µM | > 100 µM | > 100 | – | – | – | – | – | – | – | –
C=C(C(=O)O[C@H]1C(=O)C2=C(C)CCC3C(=C)C(=O)O[C@@H]3C2[C@]1(C)O)C1CC[C@]2(C)CCCC(=C)[C@H]2C1 (some centres not stated) | 5.38 | 15.8 | 4.35 µM | 25 µM and 41 µM | 8.05 µM and 6.71 µM | 11.5 µM and 15.7 µM | 12 µM and 16.5 µM | 10.4 µM and 11.1 µM | 16.5 µM and 10.3 µM | 13.8 | – | – | 9.64 | 2.42 | 5.26 | – | 0.0398 | 7.16
C[C@H]1COC2=C1C(=O)C(=O)c1c2ccc2c1CCCC2(C)C | > 56.2 | 9.55 | 42.3 µM | > 91.4 µM | 3.81 µM | 14.4 µM | 14.3 µM | > 34.5 µM | 18.2 µM | > 100 | – | – | – | – | – | – | – | –
c1ccc(CN2CCN3CCN(CC2)CCN(Cc2ccccc2)CC3)cc1 | > 56.7 | 35.5 | 8.32 µM | 28.6 µM | 18.2 µM | 25.7 µM | > 81.5 µM | 19.3 µM | 21.6 µM | 18.4 | – | – | – | – | – | – | – | –
Fc1cc(-c2cc(-c3ccc4c(c3)OCO4)n[nH]2)c(Cl)cc1Cl | > 50.7 | > 45.4 | > 100 µM | 13.7 µM | 3.68 µM | 8.49 µM | 6.46 µM | 14.6 µM | 6.24 µM | 4.94 | – | – | – | – | – | – | – | –
Cc1ccc(NC(=O)CSC(N)=O)cc1C | > 100 | > 100 | > 100 µM | > 100 µM | > 100 µM | > 100 µM | > 100 µM | > 100 µM | > 100 µM | > 100 | – | – | – | – | – | – | – | –
CN(C)CCCNCc1cccc2ccccc12 | > 100 | > 100 | > 100 µM | > 100 µM | > 100 µM | > 100 µM | > 100 µM | > 100 µM | > 100 µM | > 100 | – | – | – | – | – | – | – | –
C=C(C)CNC(=S)N(N)c1ccc2ccccc2c1 | > 100 | > 100 | > 100 µM | 77.4 µM | > 100 µM | > 100 µM | > 100 µM | > 100 µM | > 100 µM | > 100 | – | – | – | – | – | – | – | –
CC1(C)CCc2c(c(N=Nc3ccc(F)cc3)c3ccccc3c2O)O1 | > 100 | > 100 | 65.1 µM | > 100 µM | 48.6 µM | 47.3 µM | > 100 µM | 63.4 µM | > 100 µM | > 100 | – | – | – | – | – | – | – | –
Oc1cc(Br)cc2cc(Cl)cnc12 | 7.49 | 12.1 | 2.75 µM | > 100 µM | > 90.3 µM | > 26.5 µM | 17.4 µM | 32.6 µM | > 100 µM | > 100 | – | – | – | – | – | – | – | –
C=C(c1ccccc1)c1ccccc1-c1cc(-c2ccccc2)cc(-c2ccccc2)n1 | > 100 | > 100 | > 100 µM | > 100 µM | > 100 µM | > 100 µM | > 100 µM | > 100 µM | > 100 µM | > 100 | – | – | – | – | – | – | – | –
COc1cc(CS(=O)c2ccc(O)cc2)cc(OC)c1OC (configuration not stated) | > 100 | > 100 | > 100 µM | > 100 µM | > 100 µM | > 100 µM | > 100 µM | > 100 µM | > 100 µM | > 100 | – | – | – | – | – | – | – | –
CC(C)(C)[Si](C)(C)OCC1OC(n2cnc3c(=O)[nH]c(N)nc32)C(O[Si](C)(C)C(C)(C)C)C1O[Si](C)(C)C(C)(C)C (configuration not stated) | 3.45 | 7.65 | 2.34 µM | 5.79 µM | 9.57 µM | > 19.7 µM | 15.3 µM | 6.54 µM | 5.72 µM | 10.5 | – | – | – | – | – | – | – | –
C=C1C(=O)OC2CC3(C)OC3CC/C(C)=C/C(OC(C)=O)C12 (configuration not stated) | 13.9 | 42.9 | 3.4 µM | 23 µM | 22 µM | 12.8 µM | 26.5 µM | 31.6 µM | 16.8 µM | 24.8 | – | – | – | – | – | – | – | –
O=[N+]([O-])C(Cl)=C/C(=C(\Cl)SCc1ccccc1)[N+](=O)[O-] | 46.9 | > 100 | 23.8 µM | 52.4 µM | > 100 µM | 33.6 µM | 40.2 µM | > 100 µM | 45 µM | 59.3 | – | – | – | – | – | – | – | –
